Assay results: ChEMBL document CHEMBL1138068 (J Med Chem, 2006)

Key:
[1] = target: Neuronal acetylcholine receptor subunit alpha-7 (Rattus norvegicus, UniProt Q05941); test: Displacement of [125I]alpha-BTX from alpha-7 nAChR in rat hippocampus membrane; assay type: cell membranes
[2] = target: Cytochrome P450 2D6 (Homo sapiens, UniProt P10635); test: Inhibition of CYP2D6; assay type: ADME
[3] = target: Neuronal acetylcholine receptor subunit alpha-7 (Homo sapiens) (UniProt P36544); test: Activity at alpha-7 nAChR assessed as stimulation of relative inward current in cultured hippocampal neurons relative to choline; assay type: functional, tissue-based; conditions: Hippocampus, filed as agonist
Sequence of Neuronal acetylcholine receptor subunit alpha-7 (Homo sapiens) (P36544 whole entry): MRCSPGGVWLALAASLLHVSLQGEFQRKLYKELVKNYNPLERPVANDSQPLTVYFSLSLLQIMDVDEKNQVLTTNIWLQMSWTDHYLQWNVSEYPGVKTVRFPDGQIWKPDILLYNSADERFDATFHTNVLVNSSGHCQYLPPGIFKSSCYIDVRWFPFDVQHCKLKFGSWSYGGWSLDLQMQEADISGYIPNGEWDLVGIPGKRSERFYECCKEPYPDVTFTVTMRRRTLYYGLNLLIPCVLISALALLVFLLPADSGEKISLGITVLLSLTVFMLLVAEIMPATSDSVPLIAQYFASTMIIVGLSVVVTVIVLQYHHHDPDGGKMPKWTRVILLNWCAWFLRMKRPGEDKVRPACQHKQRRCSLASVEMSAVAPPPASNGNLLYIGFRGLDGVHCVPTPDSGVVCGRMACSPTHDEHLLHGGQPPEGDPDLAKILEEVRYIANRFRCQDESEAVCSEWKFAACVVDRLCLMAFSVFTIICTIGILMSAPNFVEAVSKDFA

Sequence of Neuronal acetylcholine receptor subunit alpha-7 (Q05941 whole entry): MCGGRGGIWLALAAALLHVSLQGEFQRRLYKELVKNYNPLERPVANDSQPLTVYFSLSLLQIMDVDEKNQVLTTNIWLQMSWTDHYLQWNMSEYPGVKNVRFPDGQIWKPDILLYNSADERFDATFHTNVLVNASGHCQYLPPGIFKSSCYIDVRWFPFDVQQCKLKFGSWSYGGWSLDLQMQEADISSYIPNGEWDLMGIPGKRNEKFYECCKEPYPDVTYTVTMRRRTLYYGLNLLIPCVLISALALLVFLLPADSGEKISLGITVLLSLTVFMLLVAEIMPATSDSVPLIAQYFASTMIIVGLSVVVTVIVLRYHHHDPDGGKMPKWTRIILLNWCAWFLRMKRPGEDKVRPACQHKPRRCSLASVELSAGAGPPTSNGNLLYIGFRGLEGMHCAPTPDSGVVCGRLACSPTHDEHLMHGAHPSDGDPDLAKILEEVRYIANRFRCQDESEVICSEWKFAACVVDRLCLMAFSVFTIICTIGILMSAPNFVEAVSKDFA
Sequence of Cytochrome P450 2D6 (P10635 whole entry): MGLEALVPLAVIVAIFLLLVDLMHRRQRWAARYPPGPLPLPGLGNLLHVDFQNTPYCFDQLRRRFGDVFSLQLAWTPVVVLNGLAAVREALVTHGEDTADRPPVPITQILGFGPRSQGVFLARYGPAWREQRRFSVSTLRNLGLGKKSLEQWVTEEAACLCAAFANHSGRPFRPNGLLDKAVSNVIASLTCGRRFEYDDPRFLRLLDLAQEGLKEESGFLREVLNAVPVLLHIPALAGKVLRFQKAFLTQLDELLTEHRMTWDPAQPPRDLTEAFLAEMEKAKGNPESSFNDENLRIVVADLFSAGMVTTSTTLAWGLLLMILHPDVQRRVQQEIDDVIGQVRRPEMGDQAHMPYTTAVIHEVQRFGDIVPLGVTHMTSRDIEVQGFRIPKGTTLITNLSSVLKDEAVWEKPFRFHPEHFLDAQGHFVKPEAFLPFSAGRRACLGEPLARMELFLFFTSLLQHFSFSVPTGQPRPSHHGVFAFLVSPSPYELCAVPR

SMILES | Ki [1] [nM] | IC50 [2] [nM] | Activity [3] | IC50 [1] [nM]
O=C1O[C@@]2(CN3CCC2CC3)CN1c1ccc2c(c1)CCC2 | 200 |  |  | 
O=C1O[C@]2(CN3CCC2CC3)CN1c1ccc2c(c1)OCCO2 | 175 |  |  | 
O=C1O[C@]2(CN3CCC2CC3)CN1c1ccc2sc(Cl)cc2c1 | 34 | > 30000 |  | 
CCc1cc2cc(N3C[C@@]4(CN5CCC4CC5)OC3=O)ccc2s1 | 135 | > 30000 |  | 
O=C1O[C@]2(CN3CCC2CC3)CN1c1ccc2occc2c1 | 19 | > 30000 | Agonist | 
O=C1OC2(CN3CCC2CC3)CN1c1ccc2ncccc2c1 (single isomer, unassigned) |  |  |  | > 1000
O=C1O[C@]2(CN3CCC2CC3)CN1c1ccc2ccoc2c1 | 50 |  |  | 
Cc1nc2cc(N3C[C@@]4(CN5CCC4CC5)OC3=O)ccc2s1 | 60 |  |  | 
O=C1O[C@@]2(CN3CCC2CC3)CN1c1ccc2occ(Br)c2c1 | 4 | > 30000 |  | 
O=C1O[C@]2(CN3CCC2CC3)CN1c1ccc2c(c1)OCC2 | 410 |  |  | 
Cc1oc2ccc(N3C[C@]4(CN5CCC4CC5)OC3=O)cc2c1C | 4 | > 30000 |  | 
O=C1O[C@]2(CN3CCC2CC3)CN1c1ccc2c(c1)OCO2 | 37 | > 30000 | Agonist | 
CCc1coc2ccc(N3C[C@@]4(CN5CCC4CC5)OC3=O)cc12 | 8 | 21000 |  | 
